Values of other authors in patent US20130337054A1, “TREATMENT OF EXCESSIVE MENSTRUAL BLOOD LOSS BY INTRAVAGINAL ADMINISTRATION OF LOW DOSES OF ANTIFIBRINOLYTIC OR HEMOSTATIC AGENT” (ARSTAT Inc., priority 2011, published 2013).

How the values were obtained:
menorrhagia = settings: oral, cited from earlier work
[1] = system: postoperative bleeding complications; settings: mouthwash, compared to placebo; cited from earlier work
[2] = cited from earlier work
[3] = system: menorrhagia (menstrual blood loss); settings: oral; cited from earlier work
postoperative blood loss = settings: cited from earlier work

Compound: NC[C@H]1CC[C@H](C(=O)O)CC1 [tranexamic acid]
- risk of gastrointestinal adverse events (menorrhagia; 6 g/day): increased
- efficacy in relation to dose (menorrhagia; EMEA 2000): dose-dependent increase in efficacy
- incidence of postoperative bleeding complications [1]: reduce the incidence
- plasma concentration ([2]; after a mouth rinse): below 2 mcg/mL
- saliva concentration, maximum level ([2]; after a mouth rinse): above 200 mcg/mL
- time saliva concentration remained at a therapeutic level ([2]; after a mouth rinse): more than two
- drug in saliva samples ([2]; after an oral tablet): not detected
- mean drug plasma concentration ([2]; after an oral tablet): 7000 ng/mL
- difference versus placebo in reduction of large stains, small and large clots and changes in serum ferritin levels [3]: no statistically significant differences

Compound: aprotinin
- plasma drug levels (postoperative blood loss; in vivo): without detectable plasma drug levels
- postoperative blood loss (postoperative blood loss; locally administered): Reduction
